By MIC is commonly meant the smallest concentration in the dilution series that meets the test's criterion for growth inhibition.

The source of these data is patent publication US10792248B2, “Aqueous suspension preparation comprising nanoparticles of macrolide antibacterial agent” (ACTIVUS PHARMA CO., LTD., priority 2013, dated 2020).

Converted amounts (≈) assume the structure as drawn. Read-outs that look alike come from different tables or passages of the source.

The subject of one series is Pseudomonas aeruginosa. In words: Minimum inhibitory concentration (MIC) test, broth microdilution method. Type of series: cell-based. Conditions: 35±1° C., 18 to 24 hours, replicates. On the procedure:
(§1) An MIC test was conducted by applying the minimum inhibitory concentration (MIC) measurement method by the broth microdilution method (the standard method of Japanese Society of Chemotherapy). The clarithromycin suspension prepared in Example 6 (1) (test substance 1) was used as a test substance. An unpulverized clarithromycin suspension (test substance 2) and a clarithromycin solution in DMSO (test substance 3) were used as controls for comparisons.
(§2) Each of the test substances was stirred for 15 seconds or more using a vortex mixer before dilution. The clarithromycin-containing samples (test substances 1 to 3) were diluted with Mueller Hinton II broth to be a concentration of 250 μg/mL, and then two-fold diluted serially to prepare mediums containing the each sample at a final drug concentration of 0.012 to 25 μg/mL, which were used for inoculation of Staphylococcus aureus subsp. aureus. Similarly, the samples were diluted with Mueller Hinton II broth to a concentration of 1000 μg/mL, and then two-fold diluted serially to prepare mediums containing the each sample at a final drug concentration of 0.049 to 100 μg/mL, which were used for inoculating Pseudomonas aeruginosa.
(§3) To a U-shaped well microplate, 0.1±0.02 mL per well of the each prepared test substance-containing medium was dispensed. Drug-free medium was dispensed into two wells as a control.
(§4) Staphylococcus aureus subsp. aureus or Pseudomonas aeruginosa was cultured overnight in Mueller Hinton II agar medium. The fresh cultured bacterium on the agar plate was suspended in equivalent to 0.5 McFarand (about 10^8 CFU/mL) with sterilized saline and further diluted tenfold (about 10^7 CFU/mL) with sterilized saline to prepare a bacterium liquid.
(§5) To each of the wells to which the test substance-containing medium or the test substance-free medium was dispensed, 0.005 mL of the bacterium liquid of Staphylococcus aureus subsp. aureus or Pseudomonas aeruginosa prepared in the above (2-2) was inoculated (final amount of bacterium liquid: about 10^4 CFU/well). The bacterium liquid was not inoculated to a part of the wells with the test substance-free medium to prepare negative control wells. After inoculation, the media were cultured at 35±1° C. for 18 to 24 hours.
(§6) After confirming growth in the control wells containing the test substance-free media, the minimum inhibitory concentration (MIC) was determined as the minimum drug concentration in which the growth of bacterium was not detected with the naked eye. […] When turbidity or a precipitation was not observed with the naked eye, or when only one precipitation with the diameter of 1 mm or less was observed, the growth was determined negative (−).
(In general: Dilution methods test growth across graded concentrations, often in twofold steps.)

The test system of series [1] is Staphylococcus aureus subsp. aureus. Described as above. As to conditions: 35±1° C., 18 to 24 hours, replicates. Type of series: cell-based. On the procedure:
as §1, §2, §3, §4, §5, §6

A short description of series [2]: Stability test of nanoized clarithromycin suspension formulation, residual ratio by HPLC (Example 10). As to conditions: 5° C., 25° C. and 40° C., 14 days. In kind it is physicochemical. On the procedure:
A quantity of 6 to 8 g of the nanoized clarithromycin suspension formulations (clarithromycin concentrations 0.3% and 1.0%) produced in Example 7 (1) were weighed in a 9 mL-screw vial, allowed to stand in thermo-hygrostats each set at 5° C., 25° C., and 40° C. to carry out the stability test over a period of 14 days. On days 7 and 14, the clarithromycin concentrations were determined by high performance liquid chromatography (HPLC), and the residual ratio was determined as compared to the clarithromycin concentration immediately after the formulation which was taken as 100% to evaluate the stability. The HPLC analysis conditions were as follows.
Apparatus: Waters alliance
Column: Inertsil ODS 4.6 mm×150 mm
Column temperature: 50° C.
Detection wavelength: 210 nm

For series [3] the following is noted: formulation with effective average diameter of less than 2000 nm combined with a surface stabilizer (Patent Literature 4); cited from earlier work.
In series [4] the test system is nontuberculous mycobacteria. Conditions: cited from earlier work.
The conditions of series [5]: cited from earlier work.
For series [6] the following is noted: rabbit, in vivo; cited from earlier work.

Take `CC[C@H]1OC(=O)[C@H](C)[C@@H](O[C@H]2C[C@@](C)(OC)[C@@H](O)[C@H](C)O2)[C@H](C)[C@@H](O[C@@H]2O[C@H](C)C[C@H](N(C)C)[C@H]2O)[C@](C)(OC)C[C@@H](C)C(=O)[C@H](C)[C@@H](O)[C@]1(C)O` [Clarithromycin solution in DMSO, clarithromycin]: in the series with Pseudomonas aeruginosa, the minimal inhibitory concentration (MIC) is over 100 µg/mL and the Minimum inhibitory concentration is over 100 µg/mL. In series [1], this molecule had an MIC of 0.391 µg/mL (≈ 0.523 µM) and a Minimum inhibitory concentration of 0.391 µg/mL (≈ 0.523 µM).

Turning to `CC[C@H]1OC(=O)[C@H](C)[C@@H](O[C@H]2C[C@@](C)(OC)[C@@H](O)[C@H](C)O2)[C@H](C)[C@@H](O[C@@H]2O[C@H](C)C[C@H](N(C)C)[C@H]2O)[C@](C)(OC)C[C@@H](C)C(=O)[C@H](C)[C@@H](O)[C@]1(C)O` [clarithromycin], in series [2], the “stability (decomposition) in the suspension formulations” value is reported as “not decomposed but stable”. In addition, the oral bioavailability result in series [3] was “higher oral bioavailability”. In addition, the “effectiveness against nontuberculous mycobacteria relative to azithromycin” value in series [4] was “four to eight times as effective as azithromycin”. In addition, the solubility in acetone result in series [5] (acetone) is on record as “slightly soluble”. Further, the solubility in chloroform entry in series [5] (chloroform) is listed as “slightly soluble”. Besides, the solubility in ethanol entry in series [5] (ethanol) is recorded as “very slightly soluble”. Besides, in series [5] (ether), the solubility in ether entry is listed as “very slightly soluble”. The solubility result in series [5] (formulation with effective average diameter of less than 2000 nm combined with a surface stabilizer (Patent Literature 4)) is “higher solubility”; in series [5] (pulverized with L-ascorbic-acid 2-glycoside (Non Patent Literature 1)) it was “enhanced solubility”. The solubility in methanol result in series [5] (methanol) is on record as “very slightly soluble”. In addition, the solubility in water result in series [5] (water) was “practically insoluble”. The “retention in the cornea” value in series [6] was “retained in the cornea”.
